Data on one molecule can be found in patent US20090280984A1, “Method of Inhibiting the Growth of Algae” (ITEQ CORPORATION, priority 2008, published 2009).

The test system of this test is Microcystis aeruginosa. Nature of the test: Inhibition of algal growth, detection of Chlorophyll-a content by spectrometry (absorbance at 665 nm after ethanol extraction). Type of test: cell-based. On the procedure: In the following embodiment, three specimens, chitosan, glucosamine, and the combination of both, were used as inhibitors to inhibit algal growth and their inhibition efficiency was tested as well. In this embodiment, one kind of toxic Cyanobacteria, Microcystis aeruginosa, is used for the inhibition test. Since chlorophyll-a content of algae is widely used as an indicator of the abundance of algae in a freshwater body, the chlorophyll-a content of Microcystis aeruginosa in the sample was detected by spectrometry.
First, four 0.5 ml portions of Microcystis aeruginosa solution were obtained and were labeled as sample I, II, III and IV, respectively, and 49.5 ml of Bold's medium was added to each sample. Next, chitosan, glucosamine, and the combination were added to sample II, III and IV, respectively, so that sample II contains 10 ppm chitosan, and sample III contains 10 ppm glucosamine, and sample IV contains 5 ppm chitosan and 5 ppm glucosamine. Sample I without any chitosan and glucosamine added was used as the control. After that, these four samples were cultured for 14 days. During that time, the Chlorophyll-a content of four samples were detected every 7 days according to the procedures mentioned below.
A portion of each sample was obtained and centrifuged at 10000 rpm at 20° C. for 15 mins, and then the supernatant was poured out. Next, four 10 ml portions of 95% (v/v) ethanol were added to sample I to IV and mixed with the residues. Next, the solution of each sample was water-bathed in 60° C. water for 30 mins to extract Chlorophyll-a. When being bathed in the water, the solution of each sample was shaken every ten minutes. After that, the solutions were centrifuged at 5000 G at 20° C. for 15 minutes and the supernatants were kept. Then, the absorbance at 665 nm of […] were detected. Finally, according to the “Standard Methods for the Examination Chlorophyll-a in Water-Ethanol Extraction” issued by National Institute of Environmental Analysis, Taiwan (NIEA E508.00B), the absorbance at 665 nm of samples I to IV were calibrated and the concentration of Chlorophyll-a content of each sample was calculated by the absorbance measured.
Basically, the whole process was the same as mentioned above except the concentration of chitosan and glucosamine in samples, and the Chlorophyll-a content was also detected. The concentration of glucosamine and chitosan contained in each sample and the Chlorophyll-a content detected are show in Table 2.

Structures are written as SMILES.

`N[C@H]1C(O)O[C@H](CO)[C@@H](O)[C@@H]1O` (stereo partly drawn) [III, glucosamine]: the “Chlorophyll-a Content” value (Embodiment I, 0th day, Microcystis aeruginosa in Bold's medium) came out at 6.9 ppb; the “Chlorophyll-a Content” value (Embodiment I, 7th day, control (sample I) 278 ppb) is 33 ppb; the “Chlorophyll-a Content” value (Embodiment I, 14th day, control (sample I) 2470 ppb) stood at 554 ppb; the Chlorophyll-a Content (Embodiment II, 7th day, Blank 62 ppb, original content 9.7 ppb) turned out to be 50 ppb; the Chlorophyll-a Content (Embodiment II, 14th day, Blank 418 ppb, original content 9.7 ppb) was 124 ppb. For the same molecule, the “inhibition of the growth of algae (in words)” value (Microcystis aeruginosa, chlorophyll-a as indicator) is on record as “could inhibit the growth of algae”.
